From patent US20070275954A1 (published 2007)

Compound | melting point
CNC1=Nc2ncccc2C(c2cnc[nH]2)=NC1c1cccs1 (stereo not shown) | 280 to 290 °C
Cn1ccnc1C1=NC(c2cccs2)C(N2CCC2)=Nc2ncccc21 (stereo not shown) | 215 to 217 °C
CNC1=Nc2ncccc2C(c2cc[nH]n2)=NC1c1cccs1 (stereo not shown) | 269 to 272 °C
c1csc(C2N=C(c3cc[nH]c3)c3cccnc3N=C2N2CCC2)c1 (stereo not shown) | 168 to 172 °C
c1csc(C2N=C(c3ccsc3)c3cccnc3N=C2N2CCC2)c1 (stereo not shown) | 90 to 95 °C
c1csc(C2N=C(c3ccsc3)c3cccnc3N=C2NC2CC2)c1 (stereo not shown) | 90 to 96 °C

The remaining lines, values ahead:

melting point | Compound
165 to 170 °C | CNC1=Nc2ncccc2C(c2ccc[nH]2)=NC1c1cccs1 (stereo not shown)
187 to 194 °C | CNC1=Nc2ncccc2C(c2cn[nH]c2)=NC1c1cccs1 (stereo not shown)
110 to 114 °C | CNC1=Nc2ncccc2C(c2ccoc2)=NC1c1cccs1 (stereo not shown)
85 to 88 °C | CNC1=Nc2ncccc2C(c2ccsc2)=NC1c1cccs1 (stereo not shown)
